In ChEMBL document CHEMBL4840338, “Cudraflavone C from Artocarpus hirsutus as a Promising Inhibitor of Pathogenic, Multidrug-Resistant S. aureus, Persisters, and Biofilms: A New Insight into a Rational Explanation of Traditional Wisdom” (J Nat Prod, 2021):
Converted amounts (≈) assume the structure as drawn. The source made the active and inactive calls. No cut-off for these calls is given here.

Tests used:
Staphylococcus aureus [1] = assay: microbe, parasite or virus in culture; conditions: ATCC 29213
Description: Antibacterial activity against Staphylococcus aureus ATCC 29213 assessed as bacterial growth inhibition incubated for 16 to 18 hrs by broth microdilution method

Klebsiella pneumoniae = assay: Antibacterial activity against Klebsiella pneumoniae BAA-1705 assessed as bacterial growth inhibition incubated for 16 to 18 hrs by broth microdilution method; format: functional; conditions: time 16-18 hrs
Escherichia coli [2] = assay: Antibacterial activity against Escherichia coli ATCC 25922 assessed as bacterial growth inhibition incubated for 16 to 18 hrs by broth microdilution method; format: functional; conditions: time 16-18 hrs
Pseudomonas aeruginosa = assay: Antibacterial activity against Pseudomonas aeruginosa ATCC 27853 assessed as bacterial growth inhibition incubated for 16 to 18 hrs by broth microdilution method; format: functional; conditions: time 16-18 hrs
Enterococcus = assay: Antibacterial activity against Enterococcus NR 31884 assessed as bacterial growth inhibition incubated for 16 to 18 hrs by broth microdilution method; format: functional; conditions: time 16-18 hrs
Acinetobacter baumannii [3] = assay: Antibacterial activity against Acinetobacter baumannii BAA 1605 assessed as bacterial growth inhibition incubated for 16 to 18 hrs by broth microdilution method; format: functional; conditions: time 16-18 hrs
Staphylococcus aureus [4] = assay: Antibacterial activity against Staphylococcus aureus ATCC 29213 assessed as time for post-antibiotic effect at 1XMIC incubated for 1 hr followed by drug wash-out and measured every single 1 hr; format: functional
Staphylococcus aureus [5] = assay: Antibacterial activity against Staphylococcus aureus ATCC 29213 assessed as time for increase by 1 log10CFU at 10XMIC incubated for 1 hr followed by drug wash-out and measured every single 1 hr; format: functional
Staphylococcus aureus [6] = assay: Antibacterial activity against Staphylococcus aureus ATCC 29213 assessed as reduction in bacterial growth at sub-MIC incubated for 25 days; format: functional, organism-based; conditions: time 25.0 day
Staphylococcus aureus [7] = assay: Antibacterial activity against Staphylococcus aureus ATCC 29213 assessed as time for increase by 1 log10CFU at 1XMIC incubated for 1 hr followed by drug wash-out and measured every single 1 hr; format: functional
Staphylococcus aureus [8] = assay: Antibacterial activity against Staphylococcus aureus ATCC 29213 assessed as time for post-antibiotic effect at 10XMIC incubated for 1 hr followed by drug wash-out and measured every single 1 hr; format: functional
Acinetobacter baumannii [9] = assay: Antibacterial activity against Acinetobacter baumannii BAA-1605 ssessed as bacterial growth inhibition in presence of outermembrane permeabilizer, PMBN incubated for 16 to 18 hrs by broth microdilution method; format: functional; conditions: time 16-18 hrs
Escherichia coli [10] = assay: Antibacterial activity against Escherichia coli ATCC 25922 assessed as bacterial growth inhibition in presence of outermembrane permeabilizer, PMBN incubated for 16 to 18 hrs by broth microdilution method; format: functional; conditions: time 16-18 hrs
Staphylococcus aureus [11] = assay: Bactericidal activity against Staphylococcus aureus ATCC 29213 assessed as reduction in bacterial load at 1X MIC preincubated for 6 hrs followed by subculturing on TSA plate for 18 to 20 hrs by time-kill assay; format: functional; conditions: time 24-26 hrs
Staphylococcus aureus [12] = assay: Antibiofilm activity against Staphylococcus aureus ATCC 29213 assessed as reduction in preformed bacterial biofilm at 1XMIC incubated for 24 hrs by crystal violet staining based microtiter plate reader assay; format: functional
Staphylococcus aureus [13] = assay: Antibiofilm activity against Staphylococcus aureus ATCC 29213 assessed as reduction in preformed bacterial biofilm at 10XMIC incubated for 24 hrs by crystal violet staining based microtiter plate reader assay; format: functional
Staphylococcus aureus [14] = assay: Antibacterial activity against Staphylococcus aureus ATCC 29213 infected in mouse J774.A1 assessed as reduction in intracellular bacterial burden at 5XMIC incubated for 24 hrs followed by replating on TSA plate for 24 hrs by intracellular killing assay; format: functional; conditions: time 48.0 hrs

SMILES	MIC (Staphylococcus aureus [1]) [µg/mL]	MIC (Klebsiella pneumoniae) [µg/mL]	MIC (Escherichia coli [2]) [µg/mL]	MIC (Pseudomonas aeruginosa) [µg/mL]	MIC (Enterococcus) [µg/mL]	MIC (Acinetobacter baumannii [3]) [µg/mL]	also measured
CCCCCCCCCC(=O)N[C@@H](Cc1c[nH]c2ccccc12)C(=O)N[C@H](CC(N)=O)C(=O)N[C@@H](CC(=O)O)C(=O)N[C@@H]1C(=O)NCC(=O)N[C@@H](CCCN)C(=O)N[C@@H](CC(=O)O)C(=O)N[C@H](C)C(=O)N[C@@H](CC(=O)O)C(=O)NCC(=O)N[C@H](CO)C(=O)N[C@@H]([C@H](C)CC(=O)O)C(=O)N[C@@H](CC(=O)c2ccccc2N)C(=O)O[C@@H]1C	1 (≈ 0.617 µM)	–	–	–	–	–	–
COc1cc2oc3c(c(=O)c2c(O)c1/C=C/C(C)C)C(C=C(C)C)Oc1cc(O)ccc1-3 (stereo not drawn)	> 64	> 64	> 64	> 64	> 64	> 64	–
CC(C)(O/N=C(\C(=O)N[C@@H]1C(=O)N2C(C(=O)[O-])=C(C[n+]3ccccc3)CS[C@H]12)c1csc(N)n1)C(=O)O [CEFTAZIDIME]	16 (≈ 29.3 µM)	–	–	–	–	–	–
CC(C)=CC1Oc2cc(O)ccc2-c2oc3cc4c(c(O)c3c(=O)c21)C=CC(C)(C)O4 (stereo not drawn) [CUDRAFLAVONE A]	> 64	> 64	> 64	> 64	> 64	> 64	–
C[C@H]1COc2c(N3CCN(C)CC3)c(F)cc3c(=O)c(C(=O)O)cn1c23.C[C@H]1COc2c(N3CCN(C)CC3)c(F)cc3c(=O)c(C(=O)O)cn1c23.O [LEVOFLOXACIN]	0.125	64	–	0.5	0.25	–	Time (Staphylococcus aureus [4]): 0.5 h; Time (Staphylococcus aureus [5]): 3 h; Activity (Staphylococcus aureus [6]): inactive; Time (Staphylococcus aureus [7]): 2.5 h; Time (Staphylococcus aureus [8]): 1 h
C[C@@H](O)[C@H]1C(=O)N2C(C(=O)O)=C(S[C@@H]3CN[C@H](C(=O)N(C)C)C3)[C@H](C)[C@H]12 [MEROPENEM]	1 (≈ 2.61 µM)	–	–	–	–	–	–
CN(C)c1ccc(O)c2c1C[C@H]1C[C@H]3[C@H](N(C)C)C(O)=C(C(N)=O)C(=O)[C@@]3(O)C(O)=C1C2=O [MINOCYCLINE]	0.25 (≈ 0.546 µM)	–	–	–	–	–	–
Oc1cc(O)cc(/C=C/c2ccc(O)cc2O)c1 [OXYRESVERATROL]	> 64	> 64	> 64	> 64	> 64	> 64	–
CO[C@H]1/C=C/O[C@@]2(C)Oc3c(C)c(O)c4c(O)c(c(/C=N/N5CCN(C)CC5)c(O)c4c3C2=O)NC(=O)/C(C)=C\C=C\[C@H](C)[C@H](O)[C@@H](C)[C@@H](O)[C@@H](C)[C@H](OC(C)=O)[C@@H]1C [RIFAMPIN]	0.0078 (≈ 0.00948 µM)	–	8 (≈ 9.72 µM)	–	–	2 (≈ 2.43 µM)	MIC (Acinetobacter baumannii [9]): 0.03 µg/mL; MIC (Escherichia coli [10]): 0.06 µg/mL
CN[C@H](CC(C)C)C(=O)N[C@H]1C(=O)N[C@@H](CC(N)=O)C(=O)N[C@H]2C(=O)N[C@H]3C(=O)N[C@H](C(=O)N[C@H](C(=O)O)c4cc(O)cc(O)c4-c4cc3ccc4O)[C@H](O)c3ccc(c(Cl)c3)Oc3cc2cc(c3O[C@@H]2O[C@H](CO)[C@@H](O)[C@H](O)[C@H]2O[C@H]2C[C@](C)(N)[C@H](O)[C@H](C)O2)Oc2ccc(cc2Cl)[C@H]1O [VANCOMYCIN]	–	–	512 (≈ 353 µM)	–	–	256 (≈ 177 µM)	Time (Staphylococcus aureus [4]): 1 h; Activity (Staphylococcus aureus [11]): 1 log10CFU/ml; Time (Staphylococcus aureus [5]): 3.5 h; MIC (Acinetobacter baumannii [9]): 64 µg/mL; Time (Staphylococcus aureus [7]): 3 h; Time (Staphylococcus aureus [8]): 1.5 h; Activity (Staphylococcus aureus [12]): inactive; inhibition (INH) (Staphylococcus aureus [13]): 7.7%; Activity (Staphylococcus aureus [14]): inactive; MIC (Escherichia coli [10]): 128 µg/mL
